Usually pEC50 stands for −log10 of the EC50, conventionally taken in molar units. The pIC50 is −log10 of the IC50, conventionally taken in molar units. Low values mean a high IC50, high ones a low IC50.

The values that follow come from ChEMBL document CHEMBL4354818, “Advances in Discovering Deubiquitinating Enzyme (DUB) Inhibitors” (J Med Chem, 2020).

pEC50, pIC50: −log10 of the molar value.

Assay [1] is described as follows: Inhibition of 26S proteasome (unknown origin) incubated for 2 hrs by proteasome Ub-Rho cleavage assay. Also noted: species or system Homo sapiens.
Assay [2] concerns HCT-116. Kind of assay: Cytotoxicity in human HCT116 cells assessed as reduction in cell viability incubated for 72 hrs by FMCA analysis. Type of assay: functional, cell-based. The settings on record: HCT-116, 72 h.
Assay [3] concerns the target T1, STAM-binding protein (Homo sapiens, UniProt O95630).
T1 sequence (O95630 whole entry): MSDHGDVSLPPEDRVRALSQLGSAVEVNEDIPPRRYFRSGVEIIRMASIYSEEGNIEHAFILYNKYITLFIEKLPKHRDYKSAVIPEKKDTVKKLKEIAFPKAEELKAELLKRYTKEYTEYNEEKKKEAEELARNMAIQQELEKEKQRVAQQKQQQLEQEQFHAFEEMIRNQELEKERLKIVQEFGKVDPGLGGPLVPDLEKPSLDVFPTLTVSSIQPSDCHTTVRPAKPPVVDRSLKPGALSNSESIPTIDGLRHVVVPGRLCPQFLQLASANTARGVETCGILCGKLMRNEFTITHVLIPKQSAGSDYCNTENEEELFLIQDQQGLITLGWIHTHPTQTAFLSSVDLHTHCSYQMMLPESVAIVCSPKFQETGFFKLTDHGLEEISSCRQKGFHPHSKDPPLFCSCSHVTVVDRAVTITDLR
Kind of assay: Inhibition of human STAMBP expressed in Sf21 cells pre-incubated for 20 mins before Ubiquitinated NALP7 substrate addition and measured after 1 hr by immunoblotting analysis.

The target in assay [4] is T2, Ubiquitin carboxyl-terminal hydrolase 4 (Homo sapiens, UniProt Q13107).
T2 sequence (Q13107 whole entry): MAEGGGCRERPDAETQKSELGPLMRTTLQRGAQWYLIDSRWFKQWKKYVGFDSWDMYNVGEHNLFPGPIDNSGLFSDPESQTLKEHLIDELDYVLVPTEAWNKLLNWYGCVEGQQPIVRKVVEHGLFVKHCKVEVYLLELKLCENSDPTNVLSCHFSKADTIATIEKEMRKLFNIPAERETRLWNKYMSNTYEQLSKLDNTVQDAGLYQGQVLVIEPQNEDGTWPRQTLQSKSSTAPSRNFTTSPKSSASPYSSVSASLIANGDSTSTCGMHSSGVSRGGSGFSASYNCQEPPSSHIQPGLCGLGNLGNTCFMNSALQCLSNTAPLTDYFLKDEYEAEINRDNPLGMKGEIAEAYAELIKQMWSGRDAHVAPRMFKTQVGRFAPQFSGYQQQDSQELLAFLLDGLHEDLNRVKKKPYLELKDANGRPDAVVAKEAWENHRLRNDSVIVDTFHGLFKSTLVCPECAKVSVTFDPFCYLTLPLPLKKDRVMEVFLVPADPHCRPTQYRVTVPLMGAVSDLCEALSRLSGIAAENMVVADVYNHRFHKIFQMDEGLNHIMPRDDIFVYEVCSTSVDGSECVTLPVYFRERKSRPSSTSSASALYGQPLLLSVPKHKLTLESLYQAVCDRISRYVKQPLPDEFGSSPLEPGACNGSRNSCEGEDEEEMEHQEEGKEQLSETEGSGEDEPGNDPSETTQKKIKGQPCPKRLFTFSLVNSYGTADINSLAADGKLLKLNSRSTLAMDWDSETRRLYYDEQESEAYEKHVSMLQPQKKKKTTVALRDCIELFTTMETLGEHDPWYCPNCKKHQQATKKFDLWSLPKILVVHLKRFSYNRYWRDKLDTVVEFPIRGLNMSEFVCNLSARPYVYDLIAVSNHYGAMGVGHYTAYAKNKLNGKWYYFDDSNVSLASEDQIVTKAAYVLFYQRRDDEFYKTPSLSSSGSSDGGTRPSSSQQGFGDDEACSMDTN
Kind of assay: Inhibition of USP4 in human U2OS using Ub-TAMRA substrate by Ub-Rhodamine fluorescent intensity assay. The assay is classed as cell-based.

For assay [5], the target named is Ubiquitin carboxyl-terminal hydrolase 7 (Homo sapiens, UniProt Q93009). Kind of assay: Inhibition of USP7 in human U2OS using Ub-TAMRA substrate by Ub-Rhodamine fluorescent intensity assay. Type of assay: cell-based.
Ubiquitin carboxyl-terminal hydrolase 7, sequence (Q93009 whole entry): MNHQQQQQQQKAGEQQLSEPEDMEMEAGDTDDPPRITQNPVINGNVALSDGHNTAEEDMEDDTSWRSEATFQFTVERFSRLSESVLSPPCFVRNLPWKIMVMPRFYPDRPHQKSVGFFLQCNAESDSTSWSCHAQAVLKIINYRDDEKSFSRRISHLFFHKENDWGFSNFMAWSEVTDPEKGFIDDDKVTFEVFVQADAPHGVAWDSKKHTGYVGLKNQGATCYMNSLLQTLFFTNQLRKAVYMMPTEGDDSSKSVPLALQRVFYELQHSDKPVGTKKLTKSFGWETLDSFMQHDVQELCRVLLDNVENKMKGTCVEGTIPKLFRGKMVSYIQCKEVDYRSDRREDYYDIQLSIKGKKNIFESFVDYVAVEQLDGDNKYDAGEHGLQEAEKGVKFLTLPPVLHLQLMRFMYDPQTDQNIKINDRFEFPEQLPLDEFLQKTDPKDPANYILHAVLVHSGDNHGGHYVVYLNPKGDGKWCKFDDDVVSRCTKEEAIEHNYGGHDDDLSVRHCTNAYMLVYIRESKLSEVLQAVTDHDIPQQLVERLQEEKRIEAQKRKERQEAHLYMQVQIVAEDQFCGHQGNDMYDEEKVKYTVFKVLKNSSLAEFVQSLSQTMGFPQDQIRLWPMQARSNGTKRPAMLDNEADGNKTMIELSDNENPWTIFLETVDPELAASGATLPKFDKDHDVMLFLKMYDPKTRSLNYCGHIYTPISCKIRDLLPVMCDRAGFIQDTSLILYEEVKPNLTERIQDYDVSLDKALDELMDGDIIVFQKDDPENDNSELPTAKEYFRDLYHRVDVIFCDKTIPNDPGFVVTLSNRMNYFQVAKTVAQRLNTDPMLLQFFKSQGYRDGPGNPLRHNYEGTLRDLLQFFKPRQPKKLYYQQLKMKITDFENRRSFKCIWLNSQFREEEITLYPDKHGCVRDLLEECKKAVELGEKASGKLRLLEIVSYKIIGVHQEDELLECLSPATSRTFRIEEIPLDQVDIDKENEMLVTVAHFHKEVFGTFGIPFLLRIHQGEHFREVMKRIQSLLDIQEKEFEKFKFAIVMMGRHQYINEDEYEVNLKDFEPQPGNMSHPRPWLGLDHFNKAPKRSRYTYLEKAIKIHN

`C=CC(=O)N1C/C(=C\c2ccc([N+](=O)[O-])cc2)C(=O)/C(=C/c2ccc([N+](=O)[O-])cc2)C1`: the pEC50 in assay [1] is 5.19; in assay [2] it was 5.98.

Consider `C=CC(=O)N1CC/C(=C\c2ccc(F)c([N+](=O)[O-])c2)C(=O)/C(=C/c2ccc(F)c([N+](=O)[O-])c2)C1`, for which the figures for the negative-log EC50 (pEC50) in assay [1] and in assay [2] were 5.19 and 6.24, respectively.

On to `O=C(CSc1nc2ccc(N3CCOCC3)cc2c(=O)n1CCc1ccccc1)NCc1ccco1`, for which the pIC50 in assay [3] was 6.48.

Take `C#Cc1ccc(CNC(=O)c2cc(C(=O)CCl)cn2C)cc1`: the negative-log IC50 (pIC50) in assay [4] was 7.30; in assay [5], 4.36.
